Data from patent US11278586B2, “Highly absorbable oral tyrosine formulation” (Kao Corporation, priority 2017, dated 2022).
Where a SMILES comes first, the peptide text is derived from it.

Columns and labels:
[1] = Bioabsorbability of tyrosine after oral administration to mice (plasma amino acids by LC-MS/MS); assay type: in vivo, C57B6J Mice; conditions: oral 0.55 mmol/kg body weight; for administered dipeptide detected in the plasma: at any time after administration (15-60 min), results not shown
Method: C57B6J Mice (CLEA Japan, Inc., 8 weeks old, male) were acclimatized for 1 week, and then the mice were divided into 4 groups with similar body weights (N=4 for each group). Each of amino acids dissolved in water was orally administered to the mice by sonde at the following dose in Table 1. Venous blood was collected from the fundus using a heparin-treated micro hematocrit tube (VITREX) under isoflurane anesthesia before administration and 15, 30, 45, and 60 minutes after administration. These were centrifuged (8,000×g, 10 minutes, 4° C.) to obtain plasma. Thereafter, a 15% by mass of aqueous sulfosalicylic acid solution which was three times amount of the plasma was added thereto, mixed, and centrifuged (8,000×g, 10 minutes, 4° C.) to remove the protein, and the obtained plasma was used as a sample for analysis. Quantification of amino acids in the sample for analysis was performed using LC-MS/MS. Infinity 1290 (Agilent) was used for liquid chromatography, and 3200 QTRAP (AB Sciex) was used for mass spectrometry.
A tyrosine administration group and a tyrosine and glycine (each equimolar amount) mixed administration group were set as controls for the glycyltyrosine administration group. An alanyltyrosine administration group was also set for effect comparison.

Solubility in water = assay type: physicochemical; conditions: dose of 0.55 mmol/kg body weight, an amount equivalent to 10 times the solubility of tyrosine
Method: Glycyltyrosine and alanyltyrosine are known to have high solubility as compared to tyrosine, and the solubility thereof in water at 20° C. is about 75 times and about 36 times that of tyrosine, respectively (Fust et al., (2001) J. Nutr.). […] In spite of this, an excellent action of improving bioabsorbability of tyrosine was confirmed only in the oral administration/ingestion of glycyltyrosine. Therefore, the action is considered not due to the improvement in solubility, but an effect unique to glycyltyrosine.

[2] = water at 20° C.; Fust et al. (2001) J. Nutr.; cited from earlier work

SMILES	administered dipeptide detected in the plasma [1]	dissolution of the administration sample in water (Solubility in water)	solubility in water relative to that of tyrosine [2]	blood tyrosine concentration compared with the tyrosine administration group ([1]; 15 minutes after administration, Dunnett p<0.01, FIG. 1)	maximum blood concentration (Cmax) of tyrosine compared to the tyrosine administration group ([1]; FIG. 2)	blood glycine concentration versus the tyrosine and glycine mixed administration group ([1]; at any time after administration, FIG. 1)	area under the increased blood concentration-time curve (iAUC) of tyrosine compared to the tyrosine administration group ([1]; until 60 minutes after administration, FIG. 2)
C[C@H](N)C(=O)N[C@@H](Cc1ccc(O)cc1)C(=O)O [alanyltyrosine, L-Alanyl-L-tyrosine, reference compound] (H-Ala-Tyr-OH)	not detected	completely dissolved	about 36 times				
NCC(=O)N[C@@H](Cc1ccc(O)cc1)C(=O)O [glycyltyrosine, Glycyl-L-tyrosine dihydrate] (H-Gly-Tyr-OH)	not detected	completely dissolved	about 75 times	significantly higher	significantly high values	no significant difference	significantly high values
